Legend:
ABT-737 = compound: CN(C)CC[C@H](CSc1ccccc1)Nc1ccc(S(=O)(=O)NC(=O)c2ccc(N3CCN(Cc4ccccc4-c4ccc(Cl)cc4)CC3)cc2)cc1[N+](=O)[O-] [ABT-737]
Luminespib/NVP-AUY922 = compound: CCNC(=O)c1noc(-c2cc(C(C)C)c(O)cc2O)c1-c1ccc(CN2CCOCC2)cc1 [Luminespib/NVP-AUY922]
Cabozantinib = compound: COc1cc2nccc(Oc3ccc(NC(=O)C4(C(=O)Nc5ccc(F)cc5)CC4)cc3)c2cc1OC [Cabozantinib]
[1] = compound: COc1ccc2c(c1)[C@]1(C[C@H]1c1ccc3c(/C=C/c4ccc(CN5C[C@@H](C)O[C@@H](C)C5)cc4)n[nH]c3c1)C(=O)N2
THZ-P1-2 = compound: CN(C)C/C=C/C(=O)NC1=CC=C(C=C1)C(=O)NC2=CC=CC(=C2)NC3=NC=NC(=C3)C4=CNC5=CC=CC=C54 [THZ-P1-2]
Paclitaxel = compound: CC(=O)O[C@H]1C(=O)[C@@]2(C)[C@H]([C@H](OC(=O)c3ccccc3)[C@]3(O)C[C@H](OC(=O)[C@H](O)[C@@H](NC(=O)c4ccccc4)c4ccccc4)C(C)=C1C3(C)C)[C@]1(OC(C)=O)CO[C@@H]1C[C@@H]2O [Paclitaxel]
AZD1775 = compound: C=CCn1c(=O)c2cnc(Nc3ccc(N4CCN(C)CC4)cc3)nc2n1-c1cccc(C(C)(C)O)n1 [AZD1775]
AZD6738 = compound: C[C@@H]1COCCN1c1cc(C2([S@](C)(=N)=O)CC2)nc(-c2cc[nH]c3nccc2-3)n1 [AZD6738]
Pictilisib/GDC0941 = compound: CS(=O)(=O)N1CCN(Cc2cc3nc(-c4cccc5[nH]ncc45)nc(N4CCOCC4)c3s2)CC1 [Pictilisib/GDC0941]
[2] = compound: Cc1nn(C)c(COc2ccc(N3CCN(S(=O)(=O)N(C)C)CC3)cc2)c1-c1cccc2c(CCCOc3cccc4ccccc34)c(C(=O)O)n(CCN3CCOCC3)c12
[3] = compound: CCc1cnn2c(NCc3ccc[n+]([O-])c3)cc(N3CCCC[C@H]3CCO)nc12
[4] = compound: CCN1CCN(Cc2ccc(Nc3ncc(F)c(-c4cc(F)c5nc(C)n(C(C)C)c5c4)n3)nc2)CC1
Flavopiridol = compound: CN1CC[C@H](c2c(O)cc(O)c3c(=O)cc(-c4ccccc4Cl)oc23)[C@H](O)C1 [Flavopiridol]
TGX221 = compound: CC1=CN2C(=O)C=C(N=C2C(=C1)C(C)NC3=CC=CC=C3)N4CCOCC4 [TGX221]
AZD5363 = compound: NC1(C(=O)N[C@@H](CCO)c2ccc(Cl)cc2)CCN(c2nc[nH]c3nccc2-3)CC1 [AZD5363]
Buparlisib/NVP-BKM120 = compound: Nc1cc(C(F)(F)F)c(-c2cc(N3CCOCC3)nc(N3CCOCC3)n2)cn1 [Buparlisib/NVP-BKM120]
SHP099 = compound: CC1(CCN(CC1)C2=CN=C(C(=N2)N)C3=C(C(=CC=C3)Cl)Cl)N [SHP099]
LEE011/Ribociclib = compound: CN(C)C(=O)c1cc2cnc(Nc3ccc(N4CCNCC4)cn3)nc2n1C1CCCC1 [LEE011/Ribociclib]
Cediranib/AZD2171 = compound: COc1cc2c(Oc3ccc4[nH]c(C)cc4c3F)ncnc2cc1OCCCN1CCCC1 [Cediranib/AZD2171]
Saracatinib/AZD0530 = compound: CN1CCN(CCOc2cc(OC3CCOCC3)c3c(Nc4c(Cl)ccc5c4OCO5)ncnc3c2)CC1 [Saracatinib/AZD0530]
THZ1 = compound: CN(C)C/C=C/C(=O)Nc1ccc(C(=O)Nc2cccc(Nc3ncc(Cl)c(-c4c[nH]c5ccccc45)n3)c2)cc1 [THZ1]
BVD523 = compound: CC(C)Nc1cc(-c2c[nH]c(C(=O)N[C@H](CO)c3cccc(Cl)c3)c2)c(Cl)cn1 [BVD523]
Torin2 = compound: C1=CC(=CC(=C1)N2C(=O)C=CC3=CN=C4C=CC(=CC4=C32)C5=CN=C(C=C5)N)C(F)(F)F [Torin2]
[5] = compound: CNc1nc(-c2ccc3c(N)n[nH]c3c2)cc(N2C[C@@H](C(=O)NC3CCCCC3)CC[C@H]2C)n1
[6] = compound: CCCCOc1c(C(=O)c2c(F)cc(C)cc2F)c[nH]c2nncc1-2
Tivantinib/ARQ197 = compound: O=C1NC(=O)[C@@H](c2cn3c4c(cccc24)CCC3)[C@@H]1c1c[nH]c2ccccc12 [Tivantinib/ARQ197]
Alpelisib/BYL719 = compound: Cc1nc(NC(=O)N2CCC[C@H]2C(N)=O)sc1-c1ccnc(C(C)(C)C(F)(F)F)c1 [Alpelisib/BYL719]
AZD7762 = compound: NC(=O)Nc1cc(-c2cccc(F)c2)sc1C(=O)N[C@H]1CCCNC1 [AZD7762]
Ipatasertib/GDC0068 = compound: CC(C)NC[C@@H](C(=O)N1CCN(c2ncnc3c2[C@H](C)C[C@H]3O)CC1)c1ccc(Cl)cc1 [Ipatasertib/GDC0068]
Olaparib/AZD2281 = compound: O=C(c1cc(Cc2n[nH]c(=O)c3ccccc23)ccc1F)N1CCN(C(=O)C2CC2)CC1 [Olaparib/AZD2281]
[7] = compound: CCC1=CN=CN=C1N2CCN(CC2)CC3=NC4=C(N3)C=C(C=C4)C(F)(F)F
R0-3306 = compound: C1=CC2=C(C=CC(=C2)C=C3C(=O)NC(=NCC4=CC=CS4)S3)N=C1 [R0-3306]
senexin b = compound: CN1CCN(C(=O)c2ccc3cc(CCNc4ncnc5ccc(C#N)cc45)ccc3c2)CC1 [senexin b]
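Note: breast cancer and non-malignant breast epithelial cell lines, Deep Dye Drop or Dye Drop imaging, nine half-log doses, GR normalized to time-zero plates and DMSO-only controls.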

| Cell Line | GR50, 72 h (ABT-737) [µM] | GR50, 72 h (Luminespib/NVP-AUY922) [µM] | GR50, 72 h (Cabozantinib) [µM] | GR50, 72 h [1] [µM] | GR50, 72 h (THZ-P1-2) [µM] | GR50, 72 h (Paclitaxel) [µM] | GR50, 72 h (AZD1775) [µM] | GR50, 72 h (AZD6738) [µM] | GR50, 72 h (Pictilisib/GDC0941) [µM] | GR50, 72 h [2] [µM] | GR50, 72 h [3] [µM] | GR50, 72 h [4] [µM] | GR50, 72 h (Flavopiridol) [µM] | GR50, 72 h (TGX221) [µM] | GR50, 72 h (AZD5363) [µM] | GR50, 72 h (Buparlisib/NVP-BKM120) [µM] | GR50, 72 h (SHP099) [µM] | GR50, 72 h (LEE011/Ribociclib) [µM] | GR50, 72 h (Cediranib/AZD2171) [µM] | GR50, 72 h (Saracatinib/AZD0530) [µM] | GR50, 72 h (THZ1) [µM] | GR50, 72 h (BVD523) [µM] | GR50, 72 h (Torin2) [µM] | GR50, 72 h [5] [µM] | GR50, 72 h [6] [µM] | GR50, 72 h (Tivantinib/ARQ197) [µM] | GR50, 72 h (Alpelisib/BYL719) [µM] | GR50, 72 h (AZD7762) [µM] | GR50, 72 h (Ipatasertib/GDC0068) [µM] | GR50, 72 h (Olaparib/AZD2281) [µM] | GR50, 72 h [7] [µM] | GR50, 72 h (R0-3306) [µM] | GR50, 72 h (senexin b) [µM] |
| --- | --- | --- | --- | --- | --- | --- | --- | --- | --- | --- | --- | --- | --- | --- | --- | --- | --- | --- | --- | --- | --- | --- | --- | --- | --- | --- | --- | --- | --- | --- | --- | --- | --- |
| SUM52PE | 9.12 | 0.00584 | 0.736 | 0.00559 | 6.06 | 0.00165 | 4.37 | 5.11 | 0.477 | 8.59 | 0.0196 | 0.376 | 0.234 | > 10 | 3.52 | 0.738 | > 10 | > 10 | 0.17 | 9.64 | 0.0156 | 5.04 | 0.0154 | 8.3 | 0.112 | 0.33 | 2.74 | 0.0752 | 6.8 | > 10 | 8 | 5.05 | > 10 |
| MDAMB415 | 7.69 | 0.00909 | 6.41 | 0.0239 | 0.0764 | 0.000687 | 1.56 | > 10 | 0.597 | > 10 | 0.0203 | 0.00897 | 0.172 | 1.81 | 0.0101 | 1.02 | > 10 | 0.00974 | 1.46 | 4.22 | 0.0347 | > 10 | 0.00771 | 1.34 | 1.87 | 1.5 | > 10 | 0.475 | 0.0507 | > 10 | 8.3 | > 10 | > 10 |
| ZR7530 | > 10 | 0.00303 |  | 0.00327 | 1.64 | 0.00474 | 1.91 | > 10 | 0.217 | > 10 | 0.0163 | 0.00886 | 0.192 | > 10 | 0.192 | 0.534 | > 10 | 0.692 | 7.57 | 0.533 | 0.0259 | > 10 | 0.0216 |  | 0.152 | 0.554 | 0.246 | 1.12 | 2.4 | > 10 | 5.13 | 6.17 | 1.48 |
| CAMA1 | > 10 | 0.00885 | 8.39 | 0.00356 | 3.39 | 0.00227 | 5.45 | 8.16 | 1.55 | > 10 | 0.0146 | 0.00786 | 0.178 | > 10 | 0.0498 | 1.01 | > 10 | 0.0104 | 5.02 | > 10 | 0.0336 | 2.73 | 0.00918 | > 10 | < 0.001 | 0.276 | > 10 | 0.253 | 0.341 | > 10 | > 10 | 4.36 | 1.09 |
